Results published in patent US8513232B2, “Substituted spirocyclic piperidine derivatives as histamine-3 (H3) receptor ligands” (Cephalon, Inc., priority 2008, dated 2013).
Several values for one entry are separate records, joined by “and”; a condition that tells them apart may be missing. Equal entries are not always repeated. Where two headings read alike, the source gives them in different places.

How the values were obtained:
human H3 receptor = biological target: T1, human H3 receptor (Homo sapiens, UniProt Q9Y5N1); assay: Human H3 radioligand binding ([3H]-N-alpha-methylhistamine, SPA)
T1 construct: expressed in transfected cells
T1 sequence (Q9Y5N1 whole entry): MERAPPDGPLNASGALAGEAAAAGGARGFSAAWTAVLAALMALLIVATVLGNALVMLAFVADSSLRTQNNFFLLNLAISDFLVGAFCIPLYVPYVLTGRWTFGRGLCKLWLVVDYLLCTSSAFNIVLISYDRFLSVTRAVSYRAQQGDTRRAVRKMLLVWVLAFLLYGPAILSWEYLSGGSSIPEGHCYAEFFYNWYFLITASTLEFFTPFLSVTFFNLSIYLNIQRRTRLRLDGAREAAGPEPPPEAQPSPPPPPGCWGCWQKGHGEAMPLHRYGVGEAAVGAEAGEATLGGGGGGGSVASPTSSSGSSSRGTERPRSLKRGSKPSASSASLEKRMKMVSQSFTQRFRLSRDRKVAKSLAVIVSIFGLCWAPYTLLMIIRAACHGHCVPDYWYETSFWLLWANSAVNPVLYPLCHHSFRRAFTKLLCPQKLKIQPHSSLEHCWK
Procedure, shortened: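 SPA competition binding on membranes from CHO cells stably expressing human H3 receptor (10 μg protein/well) with ~1 nM [3H]-N-alpha-methylhistamine and compound at 0.01 nM-30 μM. Incubation 4 h at room temperature in 50 mM Tris-HCl pH 7.4, 5 mM MgCl2, 0.1% BSA; non-specific binding defined with 10 μM clobenpropit.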

[1] = biological target: T2, rat histamine H3 receptor (Rattus norvegicus, UniProt Q9QYN8); assay: Rat H3 radioligand binding ([3H]-N-alpha-methylhistamine, SPA)
T2 construct: encoding the entire 445-amino-acid rat histamine H3 receptor; expressed in transfected cells; membrane preparation
T2 sequence (Q9QYN8 whole entry): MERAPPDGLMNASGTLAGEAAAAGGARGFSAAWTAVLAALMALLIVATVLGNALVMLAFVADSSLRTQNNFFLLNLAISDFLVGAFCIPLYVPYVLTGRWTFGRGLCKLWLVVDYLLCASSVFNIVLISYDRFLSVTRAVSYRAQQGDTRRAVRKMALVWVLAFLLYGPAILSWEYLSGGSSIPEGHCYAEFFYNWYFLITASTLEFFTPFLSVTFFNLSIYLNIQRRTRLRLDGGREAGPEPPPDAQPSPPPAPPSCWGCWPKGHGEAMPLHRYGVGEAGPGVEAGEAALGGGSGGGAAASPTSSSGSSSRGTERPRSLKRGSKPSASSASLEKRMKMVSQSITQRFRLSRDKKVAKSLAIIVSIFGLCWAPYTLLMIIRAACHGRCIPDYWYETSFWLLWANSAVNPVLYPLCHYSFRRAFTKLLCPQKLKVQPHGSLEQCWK
Procedure, shortened: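 Membranes from CHO-A3 cells stably expressing full-length rat H3 receptor (10 μg protein/well) incubated 4 h at room temperature, protected from light, with ~1 nM [3H]-N-alpha-methylhistamine and compound (0.01 nM-30 μM) in 50 mM Tris HCl pH 7.4, 5 mM MgCl2, 0.1% BSA. Binding read by SPA; 10 μM clobenpropit defined non-specific binding.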

[2] = Table C, human H3 binding, read-out: Human H3 Ki
[3] = Table C, rat H3 binding, read-out: Rat H3 Ki

| Ki (human H3 receptor; [2]) [nM] | melting point | Ki [1, 3] [nM] | Ki (human H3 receptor; read-out: Human H3 Ki) [nM] | Ki ([1]; read-out: Rat H3 kI) [nM] | SMILES | Ki (human H3 receptor) [nM] | Ki [1] [nM] |
| --- | --- | --- | --- | --- | --- | --- | --- |
| < 200 | 217 to 221 °C | < 200 |  |  | FC1(F)CCN(c2ccc3c(c2)COC2(CCN(C4CCC4)CC2)O3)C1 [Example 423] |  |  |
| < 200 | 280 to 283 °C | < 200 |  |  | c1cc2c(cc1N1CCC(OCC3CC3)CC1)CCC1(CCN(C3CCC3)CC1)O2 [Example 424] |  |  |
| < 200 | 227 to 229 °C | < 200 |  |  | CC(=O)N1CCC(Oc2ccc3c(c2)CCC2(CCN(C4CCC4)CC2)O3)CC1 [Example 426] |  |  |
| < 200 | 239 to 241 °C | < 200 |  |  | CC(C)C(=O)N1CCC(Oc2ccc3c(c2)CCC2(CCN(C4CCC4)CC2)O3)CC1 [Example 427] |  |  |
| < 200 | 260 to 262 °C | < 200 |  |  | O=c1ccc(-c2ccc3c(c2)CCC2(CCN(C4CCC4)CC2)O3)c[nH]1 [Example 429] |  |  |
| < 200 | 132 to 134 °C | < 200 |  |  | Cn1cc2c(n1)CCN(c1ccc3c(c1)CCC1(CCN(C4CCC4)CC1)O3)C2 [Example 430] |  |  |
| < 200 | 266 to 269 °C | < 200 |  |  | CCOC1CCN(c2ccc3c(c2)COC2(CCN(C4CCC4)CC2)O3)CC1 [Example 431] |  |  |
| < 200 | > 265 °C (dec.) | < 200 |  |  | c1ccc(OC2CCN(c3ccc4c(c3)CCC3(CCN(C5CCC5)CC3)O4)CC2)cc1 [Example 432] |  |  |
| < 200 | 252 to 254 °C | < 200 |  |  | c1cc2c(cc1OC1CCOCC1)CCC1(CCN(C3CCC3)CC1)O2 [Example 433] |  |  |
| < 200 | 165 to 167 °C | < 200 |  |  | O=C(C1CCN(c2ccc3c(c2)CCC2(CCN(C4CCC4)CC2)O3)CC1)N1CCOCC1 [Example 434] |  |  |
| < 200 | 243 to 245 °C | < 200 |  |  | O=C(C1CC1)N1CCC(Oc2ccc3c(c2)CCC2(CCN(C4CCC4)CC2)O3)CC1 [Example 435] |  |  |
| < 200 | 140 to 142 °C | < 200 |  |  | CN(C)C(=O)C1CCN(c2ccc3c(c2)CCC2(CCN(C4CCC4)CC2)O3)CC1 [Example 436] |  |  |
| < 200 | 233 to 235 °C | < 200 |  |  | O=S(=O)(C1CC1)N1CCC(Oc2ccc3c(c2)CCC2(CCN(C4CCC4)CC2)O3)CC1 [Example 437] |  |  |
| < 200 | 118 to 120 °C | < 200 |  |  | c1cc2c(cc1N1CCC1)CCC1(CCN(C3CCC3)CC1)O2 [Example 438] |  |  |
| < 200 | 214 to 216 °C | < 200 |  |  | CNC(=O)c1ccc(OC2CCN(c3ccc4c(c3)CCC3(CCN(C5CCC5)CC3)O4)CC2)nc1 [Example 439] |  |  |
| < 200 | 226 to 229 °C | < 200 |  |  | CCS(=O)(=O)N1CCC(Oc2ccc3c(c2)CCC2(CCN(C4CCC4)CC2)O3)CC1 [Example 441] |  |  |
| < 200 | 280 to 283 °C | < 200 |  |  | CC(C)(C)OC(=O)N1CC[C@@H](Oc2ccc3c(c2)CCC2(CCN(C4CCC4)CC2)O3)C1 [Example 442] |  |  |
| < 200 | 261 to 263 °C | 200 to 1000 |  |  | c1cc2c(cc1O[C@@H]1CCOC1)CCC1(CCN(C3CCC3)CC1)O2 [Example 443] |  |  |
|  | 177 to 178 °C |  | 200 to 1000 | 200 to 1000 | c1cc2c(cc1OCC1CC1)CCC1(CCN(C3CCC3)C1)O2 (stereo not drawn) [Example 446] |  |  |
|  | 237 to 239 °C |  | < 200 | < 200 | O=C(OCc1ccccc1)N1CC=C(c2ccc3c(c2)CCC2(CCN(C4CCC4)CC2)O3)CC1 [Example 447] |  |  |
|  | 205 to 208 °C |  | < 200 | < 200 | Cn1cc2c(n1)CCC(c1ccc3c(c1)CCC1(CCN(C4CCC4)CC1)O3)=C2 [Example 448] |  |  |
|  | 259 to 261 °C |  | < 200 | < 200 | c1cc2c(cc1O[C@H]1CCOC1)CCC1(CCN(C3CCC3)CC1)O2 [Example 450] |  |  |
|  | 305 to 307 °C |  | < 200 | < 200 | O=C(C1CCCN(c2ccc3c(c2)CCC2(CCN(C4CCC4)CC2)O3)C1)N1CCCC1 (stereo not drawn) [Example 451] |  |  |
|  | 88 to 90 °C |  | < 200 | < 200 | c1cc2c(cc1C1CCNCC1)CCC1(CCN(C3CCC3)CC1)O2 [Example 452] |  |  |
|  | > 245 °C (dec.) |  | < 200 | < 200 | CNC(=O)C1CCN(c2ccc3c(c2)COC2(CCN(C4CCC4)CC2)O3)CC1 [Example 453] |  |  |

| Ki (human H3 receptor; [2]) [nM] | melting point | Ki [1, 3] [nM] | Ki (human H3 receptor; read-out: Human H3 Ki) [nM] | Ki ([1]; read-out: Rat H3 kI) [nM] | SMILES | Ki (human H3 receptor) [nM] | Ki [1] [nM] |
| --- | --- | --- | --- | --- | --- | --- | --- |
|  | 110 to 112 °C |  | < 200 | < 200 | c1cc(-c2ccc3c(c2)CCC2(CCN(C4CCC4)CC2)O3)cs1 [Example 454] |  |  |
|  | 137 to 139 °C |  | < 200 | < 200 | CCOC(=O)C1CC=C(c2ccc3c(c2)CCC2(CCN(C4CCC4)CC2)O3)CC1 (stereo not drawn) [Example 455] |  |  |
|  | 236 to 238 °C |  | < 200 | < 200 | CCOC(=O)C1CCC(Oc2ccc3c(c2)CCC2(CCN(C4CCC4)CC2)O3)CC1 (stereo not drawn) [Example 456] |  |  |
|  | 170 to 172 °C |  | < 200 | < 200 | O=C1CCCN1CCOc1ccc2c(c1)CCC1(CCN(C3CCC3)CC1)O2 [Example 458] |  |  |
|  | 149 to 150 °C |  | < 200 | < 200 | Cn1cc2c(n1)CCC(c1ccc3c(c1)COC1(CCN(C4CCC4)CC1)O3)=C2 [Example 459] |  |  |
|  | 235 to 237 °C |  | < 200 | < 200 | O=C1CCC(=O)N1CCCOc1ccc2c(c1)CCC1(CCN(C3CCC3)CC1)O2 [Example 460] |  |  |
|  | 155 to 158 °C |  | < 200 | < 200 | [O-][S+]1CC=C(c2ccc3c(c2)COC2(CCN(C4CCC4)CC2)O3)CC1 (stereo not drawn) [Example 461] |  |  |
|  | 196 to 198 °C |  | < 200 | < 200 | O=C1CCCN1CCCOc1ccc2c(c1)CCC1(CCN(C3CCC3)CC1)O2 [Example 462] |  |  |
|  | 97 to 99 °C |  | < 200 | < 200 | c1cc2c(cc1OCC1CCOC1)CCC1(CCN(C3CCC3)CC1)O2 (stereo not drawn) [Example 463] |  |  |
|  | 174 to 176 °C |  | < 200 | < 200 | OC1(c2ccc3c(c2)COC2(CCN(C4CCC4)CC2)O3)CCSCC1 [Example 465] |  |  |
|  | 162 to 163 °C |  | < 200 | < 200 | C1=C(c2ccc3c(c2)COC2(CCN(C4CCC4)CC2)O3)CCSC1 [Example 466] |  |  |
|  | 239 to 241 °C and 239 to 240 °C |  | < 200 | < 200 | O=S1(=O)CCC(Oc2ccc3c(c2)CCC2(CCN(C4CCC4)CC2)O3)CC1 [Example 467] |  |  |
|  | 282 to 284 °C |  | < 200 | < 200 | O=C(C1CCN(c2ccc3c(c2)COC2(CCN(C4CCC4)CC2)O3)CC1)N1CCOCC1 [Example 468] |  |  |
|  | 138 to 140 °C |  | < 200 | < 200 | Cn1cc2c(n1)CCC(c1ccc3c(c1)COC1(CCN(C4CCC4)CC1)O3)C2 (stereo not drawn) [Example 469] |  |  |
|  | 113 to 115 °C |  | < 200 | < 200 | COc1cnc(-c2ccc3c(c2)COC2(CCN(C4CCC4)CC2)O3)nc1 [Example 470] |  |  |
|  | 125 to 126 °C |  | < 200 | < 200 | OC1(c2ccc3c(c2)COC2(CCN(C4CCC4)CC2)O3)CCSC1 (stereo not drawn) [Example 471] |  |  |
|  | 130 to 133 °C |  | < 200 | < 200 | [O-][S+]1CC=C(c2ccc3c(c2)COC2(CC[N+]([O-])(C4CCC4)CC2)O3)CC1 (stereo not drawn) [Example 472] |  |  |
|  | 187 to 189 °C |  | < 200 | < 200 | [O-][S+]1CCC(c2ccc3c(c2)COC2(CCN(C4CCC4)CC2)O3)CC1 (stereo not drawn) [Example 473] |  |  |
|  | 211 to 213 °C |  | < 200 | < 200 | O=c1cc(-c2ccc3c(c2)COC2(CCN(C4CCC4)CC2)O3)cc[nH]1 [Example 475] |  |  |
|  | 207 to 209 °C |  | < 200 | < 200 | O=c1cccc(-c2ccc3c(c2)COC2(CCN(C4CCC4)CC2)O3)[nH]1 [Example 476] |  |  |
|  | 157 to 159 °C |  | < 200 | < 200 | OC1(c2ccc3c(c2)COC2(CCN(C4CCC4)CC2)O3)CCOCC1 [Example 477] |  |  |
|  | 168 to 169 °C |  | < 200 | < 200 | C1=C(c2ccc3c(c2)COC2(CCN(C4CCC4)CC2)O3)CCOC1 [Example 478] |  |  |
|  | 249 to 251 °C |  | < 200 | < 200 | c1cc2c(cc1C1CCOCC1)COC1(CCN(C3CCC3)CC1)O2 [Example 479] |  |  |
|  | 153 to 155 °C |  | < 200 | < 200 | c1cc2c(cc1C1CCSCC1)COC1(CCN(C3CCC3)CC1)O2 [Example 480] |  |  |
|  | 232 to 234 °C |  | < 200 | < 200 | COc1ccc(Oc2ccc3c(c2)CCC2(CCN(C4CCC4)CC2)O3)cn1 [Example 481] |  |  |

| SMILES | Ki (human H3 receptor; [2]) [nM] | melting point | Ki [1, 3] [nM] | Ki (human H3 receptor; read-out: Human H3 Ki) [nM] | Ki ([1]; read-out: Rat H3 kI) [nM] | Ki (human H3 receptor) [nM] | Ki [1] [nM] |
| --- | --- | --- | --- | --- | --- | --- | --- |
| CC(C)S(=O)(=O)N1CCC(Oc2ccc3c(c2)CCC2(CCN(C4CCC4)CC2)O3)CC1 [Example 440] |  | 233 to 235 °C |  |  |  | < 200 | < 200 |
